This assay has as its target T1, recombinant human histamine-N-methyltransferase (HNMT) (Homo sapiens, UniProt P50135).
T1 construct: host or cells: Escherichia coli
The experiment in a line: Evaluation of histamine-N-methyltransferase inhibitory activity (Eurofins Panlabs, [3H]N-methylhistamine formation). It counts as biochemical. The procedure: The study was commissioned to Eurofins Panlabs. The study was performed using recombinant human histamine-N-methyltransferase (HNMT) expressed in Escherichia coli. First, HNMT (0.025 μg/mL) was incubated with L-ergothioneine (L-ergothioneine concentration: 10 μM, 30 μM, 100 μM, 300 μM, or 1000 μM) in a phosphate buffer (pH 7.8) at 37° C. for 15 minutes. Next, 20 μM histamine, 1.4 μM S-(5′-adenosyl)-L-methionine, and 0.014 μM S-adenosyl-L-[methyl-3H]methionine were added to initiate an enzymatic reaction. After incubating at 37° C. for 30 minutes, 2.5 M borate was added to terminate the reaction. Lastly, the enzyme inhibitory activity of L-ergothioneine was evaluated using the amount of [3H]N-methylhistamine formed in the reaction as an index.
The concentration (μM) on the horizontal axis is the L-ergothioneine concentration.

The results in this text go back to patent US20250017905A1, “COMPOSITION FOR INHIBITING HISTAMINE-N-METHYLTRANSFERASE” (SUNTORY HOLDINGS LIMITED, priority 2021, published 2025).

T1 sequence (P50135 whole entry): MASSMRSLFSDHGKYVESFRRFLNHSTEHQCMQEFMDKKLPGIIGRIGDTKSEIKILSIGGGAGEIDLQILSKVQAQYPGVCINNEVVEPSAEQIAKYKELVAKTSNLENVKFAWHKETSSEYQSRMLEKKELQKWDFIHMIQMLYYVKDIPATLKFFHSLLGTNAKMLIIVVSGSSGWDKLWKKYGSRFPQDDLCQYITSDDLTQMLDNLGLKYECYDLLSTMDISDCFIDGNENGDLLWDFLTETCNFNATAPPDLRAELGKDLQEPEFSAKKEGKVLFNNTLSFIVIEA

Consider `C[N+](C)(C)[C@@H](Cc1c[nH]c(=S)[nH]1)C(=O)[O-]` [L-ergothioneine], for which the “histamine-N-methyltransferase inhibition (FIG. 1), in words” value (10 μM, 30 μM, 100 μM, 300 μM, or 1000 μM) was “concentration-dependent manner”. Further, the IC50 (HNMT 0.025 μg/mL, phosphate buffer pH 7.8, 37° C., 20 μM histamine, 10-1000 μM tested, read-out: L-ergothioneine concentration (IC50) that inhibits 50% of substrate binding of histamine-N-methyltransferase) amounted to 46.2 µM.
